Test results taken from paper PMC3285657, “Biophysical Characterization and Membrane Interaction of the Two Fusion Loops of Glycoprotein B from Herpes Simplex Type I Virus” (PLoS ONE, 2012).
Residues, ends and D or L forms follow the SMILES beside them.

Tests used:
[1] = Quenching of tryptophan/tyrosines by acrylamide (Stern-Volmer); assay type: physicochemical; details: peptide 1 µM; for Ksv (M^−1) in buffer: absence of liposomes, F0/F = 1+Ksv [Q]; for Ksv (M^−1) in LUVs: presence of liposomes, peptide/lipid molar ratio 1/200
Text: The observed changes in the characteristics of the tryptophan/tyrosine emission upon binding of peptides HB168–186 and HB254–270 to lipid vesicles indicate their insertion into the hydrophobic region of the bilayers. We also studied the accessibility of the tryptophan/tyrosine residues of membrane-bound peptides towards acrylamide, a neutral, water-soluble, highly efficient quenching molecule, which is unable to penetrate into the hydrophobic core of the lipid bilayer. The more deeply a tryptophan/tyrosine residue is buried, the less strongly it can be quenched by acrylamide. Stern-Volmer plots for the quenching of tryptophan by acrylamide, recorded in the absence and presence of lipid vesicles, are depicted in Figure 6. Fluorescence of tryptophan/tyrosine decreased in a concentration-dependent manner by the addition of acrylamide to the peptide solution both in the absence and presence of liposomes, without other effects on the spectra. However, we can observe a substantial difference between the two peptides.
Aliquots of a 4 M solution of the water-soluble quencher were added to the solution containing the peptide (1 µM) in the absence or presence of liposomes at a peptide/lipid molar ratio of 1/200. The maximal concentration of acrylamide is 0.2 mmol/ml. Tryptophan fluorescence was measured with an excitation wavelength of 295 nm, to reduce acrylamide absorbance (and the resulting inner filter effect), and emission at a wavelength of 340 nm, to eliminate interference from the Raman band of water and tyrosine fluorescence was measured with an excitation wavelength of 274 nm, and emission at a wavelength of 305. The data were analyzed according to the Stern-Volmer equation [68], F0/F = 1+Ksv [Q], where F0 and F represent the fluorescence intensities in the absence and the presence of the quencher (Q), respectively, and Ksv is the Stern-Volmer quenching constant, which is a measure of the accessibility of tryptophan to acrylamide. […] Accordingly, Ksv is determined by the amount of non-vesicle-associated free peptide as well as the fraction of the peptide residing at the surface of the bilayer.

[2] = Lipid mixing assay (NBD-PE/Rho-PE resonance energy transfer); details: 0.1 mM lipid, 37°C
Protocol: To investigate the fusogenicity of gB peptides, NBD and Rho labelled PE were used as the donor and acceptor of fluorescence energy transfer. A population of LUVs labelled with both was mixed with a population of unlabelled LUVs and increasing amounts of peptides were added. […] The dependence of the extent of lipid mixing on the peptide to lipid molar ratio was analysed. The fusogenic capacity was monitored by measuring their ability to induce lipid mixing of model membranes composed of DOPG, DOPG/Chol (3/2), DOPC, DOPC/Chol (3/2), POPC/Chol (3/2), and POPC/Chol/SM at various ratios (4/1/1, 2/1/1, 1/1/1).
Figure 2 Ability of peptides to induce lipid mixing. Peptide-promoted membrane fusion as determined by lipid mixing; peptide aliquots were added to 0.1 mM LUVs, containing 0.6% NBD and 0.6% Rho. The increase in fluorescence was measured after the addition of peptide aliquots; reduced Triton-X-100 (0.05% v/v) was referred to as 100% of fusion. In figure is reported the dose dependence of lipid mixing at 37°C: panels A and B HB168–186 and HB254–270 in LUVs of different composition; panels C and D HB168–186 and HB254–270 in LUVs mimicking lipid rafts; panel E HB168–186, HB254–270 and shorter versions in DOPC/Chol LUVs; panel F equimolecular mixtures of peptides HB168–186 and HB254–270 in DOPC/Chol (3/2) and POPC/Chol/SM (2/1/1).
Membrane lipid mixing was monitored using the resonance energy transfer assay (RET) reported by Struck et al.. The assay is based on the dilution of the NBD-PE (donor) and Rho-PE (acceptor). Dilution due to membrane mixing results in an increase in NBD-PE fluorescence. The change in donor emission was monitored as aliquots of peptides were added to vesicles. […] The fluorescence scale was calibrated such that the zero level corresponded to the initial residual fluorescence of the labelled vesicles and the 100% value corresponding to complete mixing of all lipids in the system was set by the fluorescence intensity of vesicles upon the addition of Triton X-100 (0.05% v/v) at the same total lipid concentrations of the fusion assay. […]

[3] = Thioflavin T assay for peptide aggregation; assay type: physicochemical; details: for Aggregation state in the presence of DOPC/Chol LUVs (ThT fluorescence) / Aggregation state in aqueous medium (ThT fluorescence): peptide 4 µM, 100 mM NaCl, 10 mM Tris–HCl, 25 µM ThT, pH 7.4, 37°C; for Aggregation state in the presence of DOPC/Chol LUVs (ThT fluorescence): 0.1 mM phospholipid; for Aggregation state in aqueous medium (ThT fluorescence): ex 450 nm / em 482 nm; for Oligomerization in aqueous solution / Oligomerization inside / interacting with the membrane: summary in discussion
Protocol: The peptide's aggregation state in buffer and DOPC/Chol LUVs was assayed using ThT [36], in order to know the possible effects of the peptide aggregation on the membranes. As observed in Figure 4 A–B, the two peptides present a completely different behaviour.
Peptide aggregation was assayed using Thioflavin T (ThT). ThT associates rapidly with aggregated peptides giving rise to a new excitation maximum at 450 nm and an enhanced emission at 482 nm. LUVs in 100 mM NaCl, 10 mM Tris–HCl, 25 µM ThT, pH 7.4 (final phospholipid concentration of 0.1 mM) were titrated with a peptide concentration of 1, 4, 8, 12, 16, 20 µM. Fluorescence was measured before and after the desired amount of peptide was added into the cuvette using a Varian Cary Eclipse fluorescence spectrometer at 37°C. Samples were excited at 450 nm (slit width, 5 nm) and fluorescence emission was recorded at 482 nm (slit width, 5 nm). Aggregation was quantified according to the equation, %A = (Ff−F0)/(Fmax−F0)×100, where Ff is the value of fluorescence after peptide addition, F0 the initial fluorescence in the absence of peptide and Fmax is the fluorescence maximum obtained immediately after peptide addition. Kinetic data were obtained at a concentration of 4 µM.

[4] = biological target: the molecule itself; assay: thioflavin T fluorescence (peptide aggregation)

Molecule	Ksv (M^−1) in buffer [1]	Ksv (M^−1) in LUVs [1]	Aggregation state in the presence of DOPC/Chol LUVs (ThT fluorescence) [3]	Aggregation state in aqueous medium (ThT fluorescence) [3]	Oligomerization in aqueous solution [3]	Oligomerization inside / interacting with the membrane [3]	Level of fusion (lipid mixing) in DOPC/Chol LUVs [2]	further results
CC[C@H](C)[C@H](NC(=O)CNC(=O)[C@H](CCSC)NC(=O)[C@H](Cc1ccccc1)NC(=O)[C@H](CCC(N)=O)NC(=O)[C@H](CO)NC(=O)[C@H](Cc1ccc(O)cc1)NC(=O)[C@H](CCCNC(=N)N)NC(=O)[C@H](Cc1c[nH]cn1)NC(=O)CNC(=O)[C@H](Cc1ccccc1)NC(=O)[C@H](Cc1c[nH]c2ccccc12)NC(=O)[C@@H](NC(=O)[C@H](CCC(N)=O)NC(=O)[C@H](CO)NC(=O)[C@@H](NC(=O)[C@@H](NC(=O)[C@@H](N)C(C)C)[C@@H](C)O)C(C)C)C(C)C)C(=O)N[C@@H](Cc1ccccc1)C(=O)O [HB168–186] (H-VTVSQVWFGHRYSQFMGIF-OH)	8.3 ± 0.2 M⁻¹	6.4 ± 0.4 M⁻¹	lower aggregation	already aggregated	high tendency to oligomerize	high tendency to oligomerize	–	Fusogenic ability (lipid mixing) ([2]; LUVs of DOPG, DOPG/Chol, DOPC, DOPC/Chol, POPC/Chol, Triton X-100 = 100%, at least three repeats averaged): higher fusogenic ability; Aggregation as a function of peptide concentration (ThT fluorescence) ([3]; buffer and DOPC/Chol LUVs, high concentrations (titration 1, 4, 8, 12, 16, 20 µM), 37°C): aggregated both in the aqueous medium and in LUVs
CC(C)[C@H](N)C(=O)N[C@@H](Cc1c[nH]c2ccccc12)C(=O)N[C@@H](Cc1ccccc1)C(=O)NCC(=O)N[C@@H](Cc1c[nH]cn1)C(=O)N[C@@H](CCCNC(=N)N)C(=O)N[C@@H](Cc1ccc(O)cc1)C(=O)O [HB173–179] (H-VWFGHRY-OH)	–	–	–	–	–	–	lower levels of fusion compared to longer sequences	–
CC(C)[C@H](NC(=O)[C@H](CCCNC(=N)N)NC(=O)[C@H](CO)NC(=O)[C@@H]1CCCN1C(=O)[C@H](CC(N)=O)NC(=O)[C@@H](N)Cc1ccc(O)cc1)C(=O)N[C@@H](CCC(=O)O)C(=O)N[C@@H](C)C(=O)N[C@@H](Cc1ccccc1)C(=O)N[C@@H](Cc1c[nH]cn1)C(=O)N[C@@H](CCCNC(=N)N)C(=O)N[C@@H](Cc1ccc(O)cc1)C(=O)NCC(=O)N[C@H](C(=O)N[C@H](C(=O)N[C@H](C(=O)N[C@@H](CC(N)=O)C(=O)O)C(C)C)[C@@H](C)O)[C@@H](C)O [HB254–270] (H-YNPSRVEAFHRYGTTVN-OH)	71.1 ± 1.1 M⁻¹	8.5 ± 0.1 M⁻¹	not aggregated	not aggregated	not oligomerized	able to oligomerize	–	–
CC(C)[C@H](NC(=O)[C@@H](N)CCCNC(=N)N)C(=O)N[C@@H](CCC(=O)O)C(=O)N[C@@H](C)C(=O)N[C@@H](Cc1ccccc1)C(=O)N[C@@H](Cc1c[nH]cn1)C(=O)N[C@@H](CCCNC(=N)N)C(=O)N[C@@H](Cc1ccc(O)cc1)C(=O)O [HB258–265] (H-RVEAFHRY-OH)	–	–	–	–	–	–	lower levels of fusion compared to longer sequences	–
VTVSQVWFGHRYSQFMGIF (source: synthetic peptide (solid-phase Fmoc method), purified (purity higher than 98%)) [HB168–186]	–	–	–	–	–	–	–	binding result [4]: binds
